Test results from patent US20240182521A1, “CELL-PENETRATING PEPTIDE VARIANT AND USE THEREOF” (REGEN INNOPHARM INC., priority 2021, published 2024).

Tests used:
[1] = tested on: diabetic mouse model (db/db); assay: Diabetic wound healing by combined treatment with EGF; type: in vivo; settings: db/db mice, 8 mm punch wound
Excerpt: The diabetic wound healing effect by combined treatment with LPX peptide and EGF was confirmed.

[2] = tested on: NIH3T3 cell line and mouse mesenchymal stem cells (mMSCs); assay: Cell penetrating effect (FACS, confocal microscopy) of FITC-attached peptides; type: cell-based; settings: compared to LPX101 (2 μM)
Excerpt: A cell penetrating effect was confirmed in penetrating peptides LPX101 (SEQ ID NO: 11), LPX102 (SEQ ID NO: 12), and LPX103 (SEQ ID NO: 13) having three structures including a signal peptide, an RNA binding affinity residue, and an RNA binding residue (FIG. 1), and two zinc finger motifs. Specifically, in order to measure cell penetrating efficiency, respective peptides that may have been attached to the cell membrane surface were removed by applying a Heparin & Trypsin washing method used in a Keplan group [Kaplan I M, Wadia J S, Dowdy S F (2005) Cationic TAT peptide transduction domain enters cells by macropinocytosis. J Controlled release 102: 247-253] to a NIH3T3 cell line and mouse mesenchymal stem cells (mMSCs). […] Then, the cells were washed three times with PBS and detached with trypsin, and then FACS analysis was performed. In addition, whether each peptide actually existed in the nucleus or cytoplasm of the cell was confirmed by confocal microscopy after 18 hours of peptide treatment, and membrane binding was labeled with PKH.

[3] = tested on: diabetic model mice (db/db); assay: Blood vessel formation in diabetic wounds (histology, day 7); type: in vivo, mouse; settings: once daily, day 7 after wounding
Experimental: Since diabetic ulcers were hardly treated by insufficient vascular supply due to impaired angiogenesis and ischemic necrosis, it was confirmed whether the LPX peptide contributed to blood vessel formation in diabetic wound healing. Specifically, diabetic model mice (db/db) were wounded and then treated with LPX 103 or EGF once daily, and the recovery of angiogenesis was analyzed on day 7 after wounding, and in order to visualize the extravasation of red blood cells within the tissue, the wound and entrance (red dotted box) of each group were magnified and images were confirmed.

[4] = tested on: diabetic human epidermal keratinocyte (DHEK); assay: Cell migration across a scratched boundary; type: cell-based; settings: DHEK cells; at lower concentrations than LPX101
Experimental: An effect of LPX101 peptide on cell growth was confirmed in a NIH3T3 cell line, and the effects of LPX101, LPX102, and LPX103 peptides on cell migration were confirmed in diabetic human epidermal keratinocyte (DHEK) as a diabetic cell line. Specifically, mMSC or NIH3T3 cells were treated with the LPX101 peptide, incubated for 1 hour, and then washed. A % increase in cell growth by LPX treatment was confirmed by measuring the number of cells after 3 days of treatment and calculating a relative proliferation rate as % compared to a control group (n=3). Additionally, in order to confirm the cell migration effect, DHEK cells were treated with LPX101, LPX102, and LPX103 peptides, incubated for 1 hour, and then washed. Thereafter, the migration of cells across a scratched boundary was measured 72 hours after treatment. The number of cells that migrated across a scratch line was measured by image analysis using ImageJ.

[5] = tested on: diabetes model mice (db/db); assay: Diabetic wound healing in diabetes model mice (db/db); type: in vivo, mouse; settings: db/db mouse model
Experimental: The skins of wild type (WT) mice and diabetes model mice (db/db) (n=14 each) were punched with an 8 mm diameter puncher and treated with LPX101 (2 mg/ml, 20 μl) or PBS daily for 14 days and subjected to wound dressing. The wound healing effect was confirmed by analyzing an initial wound area and a re-epithelialization area using ImageJ (mean SEM n=3, *; p<0.05). In addition, the wound healing effect in wounds treated with LPX101 was histologically evaluated. Specifically, diabetic mice (db/db) were stained with H/E or trichrome at 7 and 14 days after wound induction and then confirmed under a microscope, and re-epithelialization and granulation tissue were quantified using ImageJ (n=3, ***; p<0.001). In addition, the wounds of db/db mice were treated with LPX101, and the tissue epidermis after 14 days was histologically analyzed.
(§1) The wound healing effects of LPX101, LPX102, and LPX103 were confirmed in an STZ-induced diabetic mouse model. […] Thereafter, according to a schedule shown in FIG. 12A, PBS (negative control), EGF (positive control) 50 μg/ml, LPX101 2 mg/ml (20 μl), LPX102 and LPX103 (2 mg/ml (20 μl)) were treated, respectively, and then the effect of wound healing in a diabetes-induced mouse model was confirmed through imaging, re-epithelialization, and diabetes phenotypes (hyperglycemia and impaired glucose tolerance test (IPGTT)) (n=10 for each group, *; p<0.05). Additionally, to compare the regenerative activity of LPX peptides in a diabetic mouse model, wound healing kinetics measured by a % non-epithelialized area to an initial wound area (n=8 for each group), and quantification of re-epithelialization analyzed as % of a re-epithelialized area to the initial wound area were confirmed.

[6] = tested on: NIH3T3 cells; assay: Cell migration effects, Table 1; type: cell-based, mouse; settings: vehicle = 1
Experimental: Various variants of the LPX peptides were prepared as illustrated in FIG. 18. Specifically, various constructs (26 constructs including 101) were prepared by adding various mutations (substitution of a CPP region, amino acid mutation of an RNA binding portion and a zinc finger structure, and addition of his-tag) to the structure of LPX101 in FIG. 19 (FIG. 20).

[7] = tested on: NIH3T3 cells; assay: Intracellular stability, cell proliferation and migration of RNA binding / zinc finger region variants; type: cell-based, mouse
Experimental: The protein stability of variants with mutations in the RNA binding region and the zinc finger region was confirmed. Specifically, LPX103 variants with mutated amino acid residues for RNA binding during cell migration were treated with NIH3T3 cells for 1 day, respectively, and based on the molecular modeling program, the intracellular stabilization effect of each peptide was analyzed after 72 hours. The mutation energy of each amino acid residue was confirmed, and variants that may cause<−1 Kcal/mol due to substitution were selected as potential mutations that may increase the stability and activity of the peptide (FIGS. 23 and 24). The effects of the selected variants on cell proliferation and cell migration were confirmed in NIH3T3 cells (FIG. 25), and as a result, mutations in the RNA binding region and the zinc finger region that improved or decreased the stability of the peptide in the cell were confirmed (FIG. 26).

[8] = tested on: NIH3T3 cells; assay: Glycolysis, extracellular acidification rate (ECAR), Seahorse XF analyzer; type: cell-based, mouse
Experimental: NIH3T3 cells were incubated in a glucose-free medium for 1 day and then sequentially treated with glucose, oligomycin, and 2-DG, and an extracellular acidification rate (ECAR) was measured as a measure of lactate production using a Seahorse extracellular flux (XF) analyzer and quantification and profile of ECAR were confirmed in cells treated with LPX peptide (Mean SEM n=3, *; p<0.05).

[9] = tested on: STZ-induced diabetic mouse model; assay: Wound healing in STZ-induced diabetic mouse model; type: in vivo; settings: 2 mg/ml (20 μl)
Experimental: as §1

[10] = tested on: diabetic mice (db/db); assay: Histological evaluation of wound re-epithelialization (H/E, day 10); type: in vivo, mouse; settings: day 10 after initial injury
Excerpt: In order to histologically evaluate wound re-epithelialization in diabetic mice by LPX peptides 101, 102 and 103, wound tissues from diabetic mice (db/db) treated by each LPX were H/E stained on day 10 after initial injury and confirmed under a microscope (50X and 100x).

LPX103: cell-penetrating peptide consisting of amino acid sequence SEQ ID NO: 13 (GSERRPKGKSMQKRRSKGDRCYNCGGLDHHAKECKL; LPX103)
diabetic wound healing effect in combination with EGF [1]: improved when treated in combination with EGF
cell permeability compared to LPX101 [2]: high cell permeability similar to LPX101
capillary formation compared to EGF [3]: more mature capillary formation
hemorrhage (extravasation of RBC) compared to EGF [3]: less hemorrhage (extravasation of RBC)
cell migration compared to LPX101 [4]: promoted cell migration to a similar extent to LPX101
diabetic wound healing effect (wound healing kinetics and re-epithelialization) compared to LPX101 [5]: better diabetic wound healing effect than LPX101
Effects on cell migration (3 expts) ([6]; 1 uM): 1.3
Effects on cell migration (3 expts) ([6]; 5 uM): 1.3
stability and biological activity [7]: high stability and biological activity
glucose metabolism (glycolysis), ECAR [8]: promoted glucose metabolism (glycolysis)
wound healing effect compared to LPX101 [9]: better effects than LPX101
re-epithelialization of diabetic wounds (histology) [10]: significantly improved re-epithelialization
